Assay results from patent US9944602B2, “Piperidinone herbicides” (E. I. DU PONT DE NEMOURS AND COMPANY, priority 2014, dated 2018).

Legend:
rice (Oryza sativa) [1] = assay: Test B flooded paddy test rice; type: in vivo; conditions: Oryza sativa, Table B, Flood, 250 g ai/ha, scale 0 to 100, read-out: Plant response rating
Outline: (§1)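 Plants grown to the 2-leaf stage; pots flooded to 3 cm above soil at treatment, compound applied directly into paddy water, depth held throughout. Greenhouse 13 to 15 d, then visual evaluation against untreated controls.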

corn (Zea mays) = assay: Test A postemergence corn; type: in vivo; conditions: Zea mays, post-emergence, 240 h, 0 to 100 scale, 0 is no effect, 100 is complete control; for Corn plant response rating (crop injury, 0 = no effect, 100 = complete kill) at 125 g/ha: 125 g ai/ha; for Corn plant response rating (crop injury, 0 = no effect, 100 = complete kill) at 500 g/ha: 500 g ai/ha
Outline: (§2)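 Directed soil spray at planting gives preemergence data; foliar application to one- to two-leaf plants gives postemergence data. Response is visual injury relative to untreated controls about 10 d after treatment, scored 0–100.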

[2] = system: ducksalad (Heteranthera limosa); assay: Test B flooded paddy test ducksalad; type: in vivo; conditions: Heteranthera limosa, Table B, Flood, 250 g ai/ha, scale 0 to 100, read-out: Plant response rating
Outline: as §1

[3] = system: sedge, umbrella (small-flower umbrella sedge, Cyperus difformis); assay: Test B flooded paddy test sedge, umbrella; type: in vivo; conditions: Cyperus difformis, Table B, Flood, 250 g ai/ha, scale 0 to 100, read-out: Plant response rating
Outline: as §1

[4] = system: foxtail, giant (giant foxtail, Setaria faberii); assay: Test A preemergence foxtail, giant; type: in vivo; conditions: Setaria faberi, pre-emergence, 240 h, 0 to 100 scale, 0 no effect, 100 complete control, read-out: Foxtail, Giant plant response rating; for pest or weed control at 125 g/ha: 125 g ai/ha; for pest or weed control at 500 g/ha: 500 g ai/ha
Outline: as §2

[5] = system: ducksalad (Heteranthera limosa); assay: Test C flooded paddy test ducksalad; type: in vivo; conditions: Table C, Flood, scale 0 to 100
Outline: (§3)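 Scores express visual response relative to untreated controls, 0 meaning no effect and 100 complete control, assessed 13 to 15 d after treatment in the greenhouse. Compound went into water flooded 3 cm above soil around 2-leaf plants.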

[6] = system: barnyardgrass (Echinochloa crus-galli); assay: Test B flooded paddy test barnyardgrass; type: in vivo; conditions: Echinochloa crus-galli, Table B, Flood, 250 g ai/ha, scale 0 to 100, read-out: Plant response rating
Outline: as §1

[7] = system: wheat (Triticum aestivum); assay: Test A postemergence wheat; type: in vivo; conditions: Triticum aestivum, post-emergence, 240 h, 0 to 100 scale, 0 is no effect, 100 is complete control, read-out: Plant response rating, Wheat; for plant injury at 125 g/ha: 125 g ai/ha; for plant injury at 500 g/ha: 500 g ai/ha
Outline: as §2

[8] = system: barnyardgrass (Echinochloa crus-galli); assay: Test A postemergence barnyardgrass; type: in vivo; conditions: Echinochloa crus-galli, post-emergence, 240 h, 0 to 100 scale, 0 is no effect, 100 is complete control, read-out: Plant response rating, Barnyardgrass; for pest or weed control at 125 g/ha: 125 g ai/ha; for pest or weed control at 500 g/ha: 500 g ai/ha
Outline: as §2

[9] = system: pigweed (Amaranthus retroflexus); assay: Test A postemergence pigweed; type: in vivo; conditions: Amaranthus retroflexus, post-emergence, 240 h, 0 to 100 scale, 0 is no effect, 100 is complete control, read-out: Plant response rating, Pigweed; for pest or weed control at 125 g/ha: 125 g ai/ha; for pest or weed control at 500 g/ha: 500 g ai/ha
Outline: as §2

[10] = system: barnyardgrass (Echinochloa crus-galli); assay: Test C flooded paddy test barnyardgrass; type: in vivo; conditions: Table C, Flood, scale 0 to 100
Outline: as §3

[11] = system: foxtail, giant (giant foxtail, Setaria faberii); assay: Test A postemergence foxtail, giant; type: in vivo; conditions: Setaria faberi, post-emergence, 240 h, 0 to 100 scale, 0 is no effect, 100 is complete control, read-out: Plant response rating, Foxtail, Giant; for pest or weed control at 125 g/ha: 125 g ai/ha; for pest or weed control at 500 g/ha: 500 g ai/ha
Outline: as §2

[12] = system: sedge, umbrella (small-flower umbrella sedge, Cyperus difformis); assay: Test C flooded paddy test sedge, umbrella; type: in vivo; conditions: Table C, Flood, scale 0 to 100
Outline: as §3

[13] = system: barnyardgrass (Echinochloa crus-galli); assay: Test A preemergence barnyardgrass; type: in vivo; conditions: 0 to 100 scale; for Plant response rating, Barnyardgrass: 500 g ai/ha, 0 is no effect, 100 is complete control; for pest or weed control at 125 g/ha: Echinochloa crus-galli, pre-emergence, 240 h, 125 g ai/ha, 0 no effect, 100 complete control, read-out: Barnyardgrass plant response rating
Outline: as §2

rice (Oryza sativa) [14] = assay: Test C flooded paddy test rice; type: in vivo; conditions: Table C, Flood, scale 0 to 100
Outline: as §3

[15] = system: pigweed (Amaranthus retroflexus); assay: Test A preemergence pigweed; type: in vivo; conditions: Amaranthus retroflexus, pre-emergence, 240 h, 0 to 100 scale, 0 no effect, 100 complete control, read-out: Pigweed plant response rating; for pest or weed control at 125 g/ha: 125 g ai/ha; for pest or weed control at 500 g/ha: 500 g ai/ha
Outline: as §2

kochia (Kochia scoparia) [16] = assay: Test A preemergence kochia; type: in vivo; conditions: Bassia scoparia, pre-emergence, 240 h, 0 to 100 scale, 0 no effect, 100 complete control, read-out: Kochia plant response rating
Outline: as §2

[17] = system: ryegrass, Italian (Italian ryegrass, Lolium multiflorum); assay: Test A preemergence ryegrass, Italian; type: in vivo; conditions: Lolium multiflorum, pre-emergence, 240 h, 0 to 100 scale, 0 no effect, 100 complete control, read-out: Ryegrass, Italian plant response rating
Outline: as §2

[18] = system: ragweed (common ragweed, Ambrosia elatior); assay: Test A preemergence ragweed; type: in vivo; conditions: Ambrosia artemisiifolia, pre-emergence, 240 h, 0 to 100 scale, 0 no effect, 100 complete control, read-out: Ragweed plant response rating
Outline: as §2

kochia (Kochia scoparia) [19] = assay: Test A postemergence kochia; type: in vivo; conditions: Bassia scoparia, post-emergence, 240 h, 0 to 100 scale, 0 is no effect, 100 is complete control, read-out: Plant response rating, Kochia
Outline: as §2

[20] = system: blackgrass (Alopecurus myosuroides); assay: Test A postemergence blackgrass; type: in vivo; conditions: Alopecurus myosuroides, post-emergence, 240 h, 0 to 100 scale, 0 is no effect, 100 is complete control, read-out: Plant response rating, Blackgrass
Outline: as §2

[21] = system: ragweed (common ragweed, Ambrosia elatior); assay: Test A postemergence ragweed; type: in vivo; conditions: Ambrosia artemisiifolia, post-emergence, 240 h, 0 to 100 scale, 0 is no effect, 100 is complete control, read-out: Plant response rating, Ragweed
Outline: as §2

[22] = system: galium (catchweed bedstraw, Galium aparine); assay: Test A postemergence galium; type: in vivo; conditions: Galium, post-emergence, 240 h, 0 to 100 scale, 0 is no effect, 100 is complete control, read-out: Plant response rating, Galium
Outline: as §2

[23] = system: ryegrass, Italian (Italian ryegrass, Lolium multiflorum); assay: Test A postemergence ryegrass, Italian; type: in vivo; conditions: Lolium multiflorum, post-emergence, 240 h, 0 to 100 scale, 0 is no effect, 100 is complete control, read-out: Plant response rating, Ryegrass, Italian
Outline: as §2

For O=C1NCCC(c2cccc(C(F)(F)F)c2)C1C(=O)Nc1ccccc1C(F)(F)F (centres unmarked) [Compound 10, 2-oxo-N-[2-(trifluoromethyl)phenyl)-4-[3-(trifluoromethyl)phenyl]-3-piperidinecarboxamide], the plant injury at 250 g/ha (rice (Oryza sativa) [1]) was 10%, the Corn plant response rating (crop injury, 0 = no effect, 100 = complete kill) at 125 g/ha (corn (Zea mays)) was 0% and the Corn plant response rating (crop injury, 0 = no effect, 100 = complete kill) at 500 g/ha (corn (Zea mays)) was 0%. The pest or weed control at 250 g/ha [2] was 40%, the pest or weed control at 250 g/ha [3] was 0% and the pest or weed control at 125 g/ha [4] was 90%. It also gave a pest or weed control at 500 g/ha [4] of 90%, a Plant response rating ([5]; 1000 g ai/ha) of 85 and a pest or weed control at 250 g/ha [6] of 0%. For the same compound, the plant injury at 125 g/ha [7] was 0%, the plant injury at 500 g/ha [7] was 0% and the melting point was 292 to 295 °C. It also gave a pest or weed control at 125 g/ha [8] of 80%, a pest or weed control at 500 g/ha [8] of 90% and a pest or weed control at 125 g/ha [9] of 0%. For the same compound, the pest or weed control at 500 g/ha [9] was 0%, the Plant response rating ([10]; 1000 g ai/ha) was 65 and the pest or weed control at 125 g/ha [11] was 40%. The pest or weed control at 500 g/ha [11] was 70%, the Plant response rating ([12]; 1000 g ai/ha) was 0 and the “Plant response rating, Barnyardgrass” value [13] was 90. The pest or weed control at 125 g/ha [13] was 60%, the Plant response rating (rice (Oryza sativa) [14]; 1000 g ai/ha) was 10 and the pest or weed control at 125 g/ha [15] was 0%. The pest or weed control at 500 g/ha [15] was 0%.

Compound O=C1NCCC(c2ccc(C(F)(F)F)cc2)C1C(=O)Nc1cccc(F)c1F (centres unmarked) [Compound 11, N-(2,3-difluorophenyl)-2-oxo-4-[4-(trifluoromethyl)phenyl]-3-piperidinecarboxamide] has a Corn plant response rating (crop injury, 0 = no effect, 100 = complete kill) at 125 g/ha (corn (Zea mays)) of 0%, a Corn plant response rating (crop injury, 0 = no effect, 100 = complete kill) at 500 g/ha (corn (Zea mays)) of 40% and a pest or weed control at 125 g/ha (kochia (Kochia scoparia) [16]; 125 g ai/ha) of 0%. It also gave a pest or weed control at 500 g/ha (kochia (Kochia scoparia) [16]; 500 g ai/ha) of 60%, a pest or weed control at 125 g/ha ([17]; 125 g ai/ha) of 0% and a pest or weed control at 500 g/ha ([17]; 500 g ai/ha) of 0%. It also gave a pest or weed control at 125 g/ha [4] of 70%, a pest or weed control at 500 g/ha [4] of 90% and a Plant response rating ([5]; 125 g ai/ha) of 30. For the same compound, the Plant response rating ([5]; 250 g ai/ha) was 80, the Plant response rating ([5]; 500 g ai/ha) was 95 and the Plant response rating ([5]; 1000 g ai/ha) was 100. It also gave a plant injury at 125 g/ha [7] of 0%, a plant injury at 500 g/ha [7] of 50% and a melting point of 180 to 182 °C. For the same compound, the pest or weed control at 125 g/ha ([18]; 125 g ai/ha) was 40%, the pest or weed control at 500 g/ha ([18]; 500 g ai/ha) was 80% and the pest or weed control at 125 g/ha [8] was 70%. It also gave a pest or weed control at 500 g/ha [8] of 90%, a pest or weed control at 125 g/ha [9] of 0% and a pest or weed control at 500 g/ha [9] of 30%. The Plant response rating ([10]; 125 g ai/ha) was 10, the Plant response rating ([10]; 250 g ai/ha) was 20 and the Plant response rating ([10]; 500 g ai/ha) was 50. The Plant response rating ([10]; 1000 g ai/ha) was 70, the pest or weed control at 125 g/ha [11] was 80% and the pest or weed control at 500 g/ha [11] was 90%. It also gave a pest or weed control at 125 g/ha (kochia (Kochia scoparia) [19]; 125 g ai/ha) of 20%, a pest or weed control at 500 g/ha (kochia (Kochia scoparia) [19]; 500 g ai/ha) of 50% and a Plant response rating ([12]; 125 g ai/ha) of 0. The Plant response rating ([12]; 250 g ai/ha) was 0, the Plant response rating ([12]; 500 g ai/ha) was 0 and the Plant response rating ([12]; 1000 g ai/ha) was 0. For the same compound, the pest or weed control at 125 g/ha ([20]; 125 g ai/ha) was 20%, the pest or weed control at 500 g/ha ([20]; 500 g ai/ha) was 50% and the “Plant response rating, Barnyardgrass” value [13] was 90. It also gave a pest or weed control at 125 g/ha [13] of 60%, a pest or weed control at 125 g/ha ([21]; 125 g ai/ha) of 0% and a pest or weed control at 500 g/ha ([21]; 500 g ai/ha) of 20%. For the same compound, the Plant response rating (rice (Oryza sativa) [14]; 125 g ai/ha) was 0, the Plant response rating (rice (Oryza sativa) [14]; 250 g ai/ha) was 0 and the Plant response rating (rice (Oryza sativa) [14]; 500 g ai/ha) was 0. The Plant response rating (rice (Oryza sativa) [14]; 1000 g ai/ha) was 0, the pest or weed control at 125 g/ha [15] was 0% and the pest or weed control at 500 g/ha [15] was 40%. It also gave a pest or weed control at 125 g/ha ([22]; 125 g ai/ha) of 40%, a pest or weed control at 500 g/ha ([22]; 500 g ai/ha) of 60% and a pest or weed control at 125 g/ha ([23]; 125 g ai/ha) of 0%. The pest or weed control at 500 g/ha ([23]; 500 g ai/ha) was 30%.
